Experimental data: patent US8492346B2, “Methods of use of epsilon inhibitor compounds for the attenuation of pain” (KAI Pharmaceuticals, Inc., priority 2007, dated 2013)
Where no end group is shown, it is not given here.

Columns and labels:
[1] = Plasma stability in human sera; assay type: in vitro ADME; conditions: plasma; human sera, 30 minutes
Protocol: (§1) The plasma and chemical stability of various cargo/carrier peptide constructs described in Example 1 was tested. Plasma stability of the compounds was tested using both human and rat sera and the amount of starting material was determined after 30 minutes of treatment. Chemical stability was evaluated by determining the amount of starting material remaining after 9 days of treatment.
(§2) The plasma stability of various cargo/carrier peptide constructs described in Example 1 was tested using both human and rat sera and the amount of starting material was determined over time to 30 minutes of treatment. The time course data for cargo/carrier peptides KP-1586, KP-1630, and KP-1631 is shown in FIG. 3, the data for peptides KP-1632, KP-1633, and KP-1634 is shown in FIG. 4, and the data for peptides KP-1635, KP-1636, and KP-1637 is shown in FIG. 5.

[2] = Chemical stability of cargo/carrier peptide constructs; assay type: physicochemical
Protocol: as §1
The chemical stability of various cargo/carrier peptide constructs described in Example 1 was tested by examining the relative concentration of the peptides over a time period of more than 200 hours at 37° C.

[3] = Plasma stability in rat sera; assay type: in vitro ADME; conditions: 30 minutes
Protocol: as §1, §2

Molecule	remaining at 0.5 h [1]	remaining at 216 h ([2]; 9 days of treatment)	remaining at 0.5 h [3]	Chemical Stability % Remaining at 9 days ([2]; 9 days of treatment)	Chemical stability, time course of relative concentration ([2]; more than 200 hours at 37° C., FIG. 6)
CC(=O)N[C@@H](CSSC[C@H](NC(C)=O)C(=O)N[C@@H](CCC(=O)O)C(=O)N[C@@H](C)C(=O)N[C@H](C(=O)N[C@@H](CO)C(=O)N[C@@H](CC(C)C)C(=O)N[C@@H](CCCCN)C(=O)N1CCC[C@H]1C(=O)N[C@H](C(=O)N[C@@H](C)C(=O)N[C@@H](Cc1c[nH]c2ccccc12)C(=O)N[C@@H](CO)C(=O)N[C@@H](CC(C)C)C(=O)N[C@@H](CCCNC(=N)N)C(=O)O)[C@@H](C)O)C(C)C)C(=O)N[C@@H](Cc1ccc(O)cc1)C(=O)NCC(=O)N[C@@H](CCCNC(=N)N)C(=O)N[C@@H](CCCCN)C(=O)N[C@@H](CCCCN)C(=O)N[C@@H](CCCNC(=N)N)C(=O)N[C@@H](CCCNC(=N)N)C(=O)N[C@@H](CCC(N)=O)C(=O)N[C@@H](CCCNC(=N)N)C(=O)N[C@@H](CCCNC(=N)N)C(=O)N[C@@H](CCCNC(=N)N)C(N)=O [KP-1632, Ac-C-E-A-V-S-L-K-P-T-A-W-S-L-R]	54%	89%	61%	–	–
CC(=O)N[C@@H](CCC(=O)O)C(=O)N[C@@H](C)C(=O)N[C@H](C(=O)N[C@@H](CO)C(=O)N[C@@H](CC(C)C)C(=O)N[C@@H](CCCCN)C(=O)N1CCC[C@H]1C(=O)N[C@H](C(=O)NCC(=O)NCC(=O)NCCCC[C@H](NC(=O)CNC(=O)CNC(=O)[C@@H](NC(=O)[C@@H]1CCCN1C(=O)[C@H](CCCCN)NC(=O)[C@H](CC(C)C)NC(=O)[C@H](CO)NC(=O)[C@@H](NC(=O)[C@H](C)NC(=O)[C@H](CCC(=O)O)NC(C)=O)C(C)C)[C@@H](C)O)C(=O)N[C@@H](CSSC[C@H](NC(C)=O)C(=O)N[C@@H](Cc1ccc(O)cc1)C(=O)NCC(=O)N[C@@H](CCCNC(=N)N)C(=O)N[C@@H](CCCCN)C(=O)N[C@@H](CCCCN)C(=O)N[C@@H](CCCNC(=N)N)C(=O)N[C@@H](CCCNC(=N)N)C(=O)N[C@@H](CCC(N)=O)C(=O)N[C@@H](CCCNC(=N)N)C(=O)N[C@@H](CCCNC(=N)N)C(=O)N[C@@H](CCCNC(=N)N)C(N)=O)C(=O)O)[C@@H](C)O)C(C)C [KP-1634, [Ac-E-A-V-S-L-K-P-T-G-G]-K-C]	87%	82%	106%	–	–
CC(=O)N[C@@H](CSSC[C@@H](NC(=O)[C@@H](CCC(=O)O)NC(=O)[C@@H](C)NC(=O)[C@H](NC(=O)[C@@H](CO)NC(=O)[C@@H](CC(C)C)NC(=O)[C@@H](CCCCN)NC(=O)[C@H]1CCCN1C(=O)[C@H](N)[C@H](C)O)C(C)C)C(=O)O)C(=O)N[C@@H](Cc1ccc(O)cc1)C(=O)NCC(=O)N[C@@H](CCCNC(=N)N)C(=O)N[C@@H](CCCCN)C(=O)N[C@@H](CCCCN)C(=O)N[C@@H](CCCNC(=N)N)C(=O)N[C@@H](CCCNC(=N)N)C(=O)N[C@@H](CCC(N)=O)C(=O)N[C@@H](CCCNC(=N)N)C(=O)N[C@@H](CCCNC(=N)N)C(=O)N[C@@H](CCCNC(=N)N)C(N)=O [KP-1635, t-p-k-l-s-v-a-e-c]	63%	95%	72%	–	–
CC(C)C[C@H](NC(=O)[C@H](CO)NC(=O)[C@@H](NC(=O)[C@H](C)NC(=O)[C@H](CCC(=O)O)NC(=O)[C@@H](N)CSSC[C@H](N)C(=O)N[C@@H](Cc1ccc(O)cc1)C(=O)NCC(=O)N[C@@H](CCCNC(=N)N)C(=O)N[C@@H](CCCCN)C(=O)N[C@@H](CCCCN)C(=O)N[C@@H](CCCNC(=N)N)C(=O)N[C@@H](CCCNC(=N)N)C(=O)N[C@@H](CCC(N)=O)C(=O)N[C@@H](CCCNC(=N)N)C(=O)N[C@@H](CCCNC(=N)N)C(=O)N[C@@H](CCCNC(=N)N)C(=O)O)C(C)C)C(=O)N[C@@H](CCCCN)C(=O)N1CCC[C@H]1C(=O)N[C@H](C(=O)O)[C@@H](C)O [KP-1636, C-E-A-V-S-L-K-P-T, reference compound]	79%	27%	79%	–	–
CC(=O)N[C@@H](CCSSC[C@H](NC(C)=O)C(=O)N[C@@H](CCC(=O)O)C(=O)N[C@@H](C)C(=O)N[C@H](C(=O)N[C@@H](CO)C(=O)N[C@@H](CC(C)C)C(=O)N[C@@H](CCCCN)C(=O)N1CCC[C@H]1C(=O)N[C@H](C(N)=O)[C@@H](C)O)C(C)C)C(=O)N[C@@H](Cc1ccc(O)cc1)C(=O)NCC(=O)N[C@@H](CCCNC(=N)N)C(=O)N[C@@H](CCCCN)C(=O)N[C@@H](CCCCN)C(=O)N[C@@H](CCCNC(=N)N)C(=O)N[C@@H](CCCNC(=N)N)C(=O)N[C@@H](CCC(N)=O)C(=O)N[C@@H](CCCNC(=N)N)C(=O)N[C@@H](CCCNC(=N)N)C(=O)N[C@@H](CCCNC(=N)N)C(=O)O [KP-1637, Ac-C-E-A-V-S-L-K-P-T-NH2]	60%	–	78%	100%	marked stability
EAVSLKPTGGYGRKKRRQRRR-NH2 [KP-1633, E-A-V-S-L-K-P-T-G-G-TaT-NH2]	83%	99%	77%	–	–
